Results: PMC8788354 (Journal of Enzyme Inhibition and Medicinal Chemistry, 2022)
Like-named read-outs stand apart in the source and are kept apart here. Numbered stars: 1 amine (or outer) side, 2 acyl side, 3 side chain; on linkers, the order of the positions; unused ones are H or OH. Bridge positions count the residues as written; N and C are the ends. Square brackets hold non-standard residues; d marks the D form. Peptide text beside a SMILES is read from it. I, II: the chains in the order shown. Actinocin(9to1) = Cc1c2oc3c(C)ccc(C(=O)[*:1])c3nc-2c(C(=O)[*:2])c(N)c1=O; NMeV = CN[C@H](C(=O)O)C(C)C; Sar = CNCC(=O)O

Key:
[1] = tested on: U-87MG cells (glioblastoma cell line); test: cells; type: cell-based, human; details: SRB assay, 72 h exposure, read-out: Anticancer activity IC50 (nM) ± SD, U-87
[2] = tested on: SKBR-3 (human breast cancer cell line); test: cells; type: cell-based; details: for IC50: SRB assay, 72 h exposure, read-out: Anticancer activity IC50 (nM) ± SD, SKBR-3
[3] = tested on: PC-3 (human prostate cancer cell line); test: cells; type: cell-based; details: for IC50: SRB assay, 72 h exposure, read-out: Anticancer activity IC50 (nM) ± SD, PC-3
in vitro = details: human
[4] = tested on: SKOV-3 (ovarian cancer cell line); test: cells; type: cell-based, human; details: for IC50: SRB assay, 72 h exposure, read-out: Anticancer activity IC50 (nM) ± SD, SKOV-3
[5] = Toxicity IC50 (nM) ± SD, HDF, healthy cell line HDF, SRB assay, 72 h exposure

Row | Structure (SMILES) | IC50 ([1]; Homo sapiens, U-87 MG) [nM] | IC50 ([3]; Homo sapiens) [nM] | IC50 ([4]; Homo sapiens, SK-OV-3) [nM] | IC50 ([2]; Homo sapiens, SK-BR-3, 72 h) [nM] | IC50 (in vitro; [5]) [nM] | further results
1 | Cc1c2oc3c(C)ccc(C(=O)N[C@@H]4C(=O)N[C@H](C(C)C)C(=O)N5CCC[C@H]5C(=O)N(C)CC(=O)N(C)[C@@H](C(C)C)C(=O)O[C@@H]4C)c3nc-2c(C(=O)N[C@@H]2C(=O)N[C@H](C(C)C)C(=O)N3CCC[C@H]3C(=O)N(C)CC(=O)N(C)[C@@H](C(C)C)C(=O)O[C@@H]2C)c(N)c1=O [ActD, actinomycin D, reference compound] (I: T[dV]P[Sar][NMeV] / II: T[dV]P[Sar][NMeV]; ester I:1-I:C, II:1-II:C; linker I:N-II:N via Actinocin(9to1)) | 1610 ± 90 | – | – | – | – | IC50 ([2]; Homo sapiens, SK-BR-3): 1140 ± 60 nM
2 | Nc1ccn([C@@H]2O[C@H](CO)[C@@H](O)[C@@H]2O)c(=O)n1 [C, cytarabine, reference compound] | 850 ± 31 | 810 ± 10 | 990 ± 110 | 870 ± 10 | – | IC50 at 72 h (in vitro; Human Dermal Fibroblasts (HDF) cells, Toxicity IC50 (nM) ± SD, HDF, healthy cell line HDF, SRB assay, 72 h exposure): 5940 ± 70 nM
3 | COc1cc2c(c(OC)c1OC)-c1ccc(OC)c(=O)cc1[C@@H](NC(C)=O)CC2 [Compound 1, colchicine, reference compound] | – | – | – | – | – | IC50 (in vitro): 2.37 ± 0.15 nM
4 | COc1cc2c(c(OC)c1OC)-c1ccc(=O)c(O)cc1[C@@H](NC(C)=O)CC2 [Compound 2, colchiceine, reference compound] | – | – | – | – | – | IC50 [3]: 1.37 ± 0.02 nM; IC50 [1]: 1.26 ± 0.04 nM; IC50 [4]: 1.88 ± 0.02 nM; IC50 [2]: 1.04 ± 0.07 nM
5 | COc1cc2c(c(OC)c1OC)-c1ccc(=O)c(OCc3ccccc3)cc1[C@@H](NC(C)=O)CC2 [Compound 3a] | 2.83 ± 0.06 | 2.27 ± 0.04 | 2.19 ± 0.07 | 2.04 ± 0.51 | 6.39 ± 1.04 | Selectivity index (SI), SKBR-3 ([2]; SI = IC50 HDF/IC50 SKBR-3): ~3
6 | COc1cc2c(c(OC)c1OC)-c1ccc(=O)c(OCc3ccc(I)cc3)cc1[C@@H](NC(C)=O)CC2 [Compound 3b] | 2.47 ± 0.91 | 2.94 ± 0.08 | 2.13 ± 0.4 | 2.55 ± 0.12 | 3.94 ± 0.27 | –
7 | COc1cc2c(c(OC)c1OC)-c1ccc(=O)c(OC/C=C/c3ccccc3)cc1[C@@H](NC(C)=O)CC2 [Compound 3c] | 3.38 ± 0.05 | 3.11 ± 0.91 | 3.74 ± 0.18 | 3.09 ± 0.02 | 5.24 ± 0.26 | –
8 | C=CCOc1cc2c(ccc1=O)-c1c(cc(OC)c(OC)c1OC)CC[C@@H]2NC(C)=O [Compound 3d] | 1.63 ± 0.04 | 1.05 ± 0.01 | 1.68 ± 0.09 | 1.09 ± 0.01 | 2.83 ± 0.05 | –
9 | C#CCOc1cc2c(ccc1=O)-c1c(cc(OC)c(OC)c1OC)CC[C@@H]2NC(C)=O [Compound 3f] | 1.14 ± 0.01 | 1.05 ± 0.03 | 1.05 ± 0.07 | 1.37 ± 0.02 | 2.83 ± 0.44 | Selectivity index (SI), PC-3 ([3]; SI = IC50 HDF/IC50 PC-3): ~2.7; Selectivity index (SI), SKOV-3 ([4]; SI = IC50 HDF/IC50 SKOV-3): ~2.7
10 | CCOC(=O)COc1cc2c(ccc1=O)-c1c(cc(OC)c(OC)c1OC)CC[C@@H]2NC(C)=O [Compound 3g] | 1.41 ± 0.03 | 1.62 ± 0.29 | 1.37 ± 0.01 | 1.31 ± 0.08 | 2.72 ± 0.03 | –
11 | C=CCCOc1cc2c(ccc1=O)-c1c(cc(OC)c(OC)c1OC)CC[C@@H]2NC(C)=O [Compound 3h] | 1.06 ± 0.03 | 1.53 ± 0.21 | 1.99 ± 0.07 | 1.04 ± 0.33 | 1.84 ± 0.11 | –
12 | COc1cc2c(c(OC)c1OC)-c1ccc(=O)c(OCCCN=[N+]=[N-])cc1[C@@H](NC(C)=O)CC2 [Compound 3i] | 1.88 ± 0.05 | 1.43 ± 0.02 | 1.05 ± 0.02 | 1.32 ± 0.05 | 2.85 ± 0.13 | –
13 | C=Cc1ccc(COc2cc3c(ccc2=O)-c2c(cc(OC)c(OC)c2OC)CC[C@@H]3NC(C)=O)cc1 [Compound 3j] | 4.55 ± 0.06 | 4.59 ± 0.03 | 4.55 ± 0.07 | 4.19 ± 0.62 | 5.38 ± 0.42 | –
14 | COc1cc2c(c(OC)c1OC)-c1ccc(OCc3ccccc3)c(=O)cc1[C@@H](NC(C)=O)CC2 [Compound 4a] | 2.08 ± 0.01 | 2.26 ± 0.01 | 1.63 ± 0.03 | 2.01 ± 0.02 | 4.12 ± 0.06 | –
15 | COc1cc2c(c(OC)c1OC)-c1ccc(OCc3ccc(I)cc3)c(=O)cc1[C@@H](NC(C)=O)CC2 [Compound 4b] | 2.85 ± 0.03 | 2.41 ± 0.66 | 2.83 ± 0.26 | 2.77 ± 0.19 | 4.12 ± 0.01 | –
16 | COc1cc2c(c(OC)c1OC)-c1ccc(OC/C=C/c3ccccc3)c(=O)cc1[C@@H](NC(C)=O)CC2 [Compound 4c] | 3.82 ± 0.22 | 3.19 ± 0.01 | 3.05 ± 0.03 | 3.46 ± 0.07 | 4.94 ± 0.15 | –
17 | C=CCOc1ccc2c(cc1=O)[C@@H](NC(C)=O)CCc1cc(OC)c(OC)c(OC)c1-2 [Compound 4d] | 1.78 ± 0.03 | 1.71 ± 0.03 | 1.73 ± 0.07 | 1.73 ± 0.11 | 2.39 ± 0.17 | –

Row | Structure (SMILES) | IC50 ([1]; Homo sapiens, U-87 MG) [nM] | IC50 ([3]; Homo sapiens) [nM] | IC50 ([4]; Homo sapiens, SK-OV-3) [nM] | IC50 ([2]; Homo sapiens, SK-BR-3, 72 h) [nM] | IC50 (in vitro; [5]) [nM] | further results
18 | C/C=C/COc1ccc2c(cc1=O)[C@@H](NC(C)=O)CCc1cc(OC)c(OC)c(OC)c1-2 [Compound 4e] | 1.93 ± 0.02 | 1.98 ± 0.05 | 1.92 ± 0.11 | 1.97 ± 0.04 | 2.66 ± 0.03 | –
19 | C#CCOc1ccc2c(cc1=O)[C@@H](NC(C)=O)CCc1cc(OC)c(OC)c(OC)c1-2 [Compound 4f] | 1.06 ± 0.04 | 1.46 ± 0.13 | 1.52 ± 0.02 | 1.48 ± 0.09 | 1.85 ± 0.03 | –
20 | CCOC(=O)COc1ccc2c(cc1=O)[C@@H](NC(C)=O)CCc1cc(OC)c(OC)c(OC)c1-2 [Compound 4g] | 1.27 ± 0.01 | 1.15 ± 0.03 | 1.06 ± 0.22 | 1.28 ± 0.17 | 2.05 ± 0.02 | –
21 | COc1cc2c(c(OC)c1OC)-c1ccc(OCCCN=[N+]=[N-])c(=O)cc1[C@@H](NC(C)=O)CC2 [Compound 4i] | 1.19 ± 0.03 | 1.49 ± 0.16 | 1.37 ± 0.09 | 1.38 ± 0.03 | 2.58 ± 0.12 | –
22 | C=Cc1ccc(COc2ccc3c(cc2=O)[C@@H](NC(C)=O)CCc2cc(OC)c(OC)c(OC)c2-3)cc1 [Compound 4j] | 3.11 ± 0.03 | 3.05 ± 0.01 | 3.01 ± 0.04 | 3.22 ± 0.36 | 5.17 ± 0.28 | –
23 | COc1cc2c(c(OC)c1OC)-c1ccc(=O)c(OCc3cn(Cc4ccccc4)nn3)cc1[C@@H](NC(C)=O)CC2 [Compound 5a] | 3.74 ± 0.19 | 3.21 ± 0.15 | 3.28 ± 0.06 | 3.07 ± 0.11 | 5.28 ± 0.22 | –
24 | COc1cc2c(c(OC)c1OC)-c1ccc(=O)c(OCc3cn(Cc4ccc(C#N)cc4)nn3)cc1[C@@H](NC(C)=O)CC2 [Compound 5b] | 2.57 ± 0.13 | 2.13 ± 0.02 | 2.88 ± 0.47 | 2.07 ± 0.08 | 4.92 ± 0.51 | –
25 | COc1cc2c(c(OC)c1OC)-c1ccc(=O)c(OCc3cn(Cc4ccc([N+](=O)[O-])cc4)nn3)cc1[C@@H](NC(C)=O)CC2 [Compound 5c] | 2.04 ± 0.08 | 2.09 ± 0.33 | 2.94 ± 0.71 | 2.18 ± 0.02 | 3.12 ± 0.41 | –
26 | COc1cc2c(c(OC)c1OC)-c1ccc(=O)c(OCc3cn([C@@H]4O[C@H](COC(C)=O)[C@@H](OC(C)=O)[C@H](OC(C)=O)[C@H]4NC(C)=O)nn3)cc1[C@@H](NC(C)=O)CC2 [Compound 5d] | 6.11 ± 0.26 | 6.39 ± 0.08 | 6.03 ± 0.19 | 6.29 ± 0.25 | 7.99 ± 0.04 | –
27 | COc1cc2c(c(OC)c1OC)-c1ccc(=O)c(OCc3cn(C4CC(n5cc(C)c(=O)[nH]c5=O)OC4CO)nn3)cc1C(NC(C)=O)CC2 (stereo not shown) [Compound 5e] | 3.05 ± 0.01 | 3.51 ± 0.09 | 3.74 ± 0.03 | 3.71 ± 0.05 | 6.22 ± 0.32 | –
28 | COc1cc2c(c(OC)c1OC)-c1ccc(=O)c(OCc3cn(CCCNC4=C5C[C@@H](C)C[C@H](OC)[C@H](O)[C@@H](C)/C=C(\C)[C@H](OC(N)=O)[C@@H](OC)/C=C\C=C(/C)C(=O)NC(=CC4=O)C5=O)nn3)cc1[C@@H](NC(C)=O)CC2 [Compound 5f] | 8.25 ± 0.11 | 8.38 ± 0.09 | 8.05 ± 0.58 | 8.91 ± 0.17 | 10.4 ± 0.39 | –
29 | COc1cc2c(c(OC)c1OC)-c1ccc(OCc3cn(Cc4ccccc4)nn3)c(=O)cc1[C@@H](NC(C)=O)CC2 [Compound 6a] | 2.78 ± 0.05 | 2.04 ± 0.44 | 2.79 ± 0.07 | 2.33 ± 0.09 | 3.88 ± 0.14 | –
30 | COc1cc2c(c(OC)c1OC)-c1ccc(OCc3cn(Cc4ccc(C#N)cc4)nn3)c(=O)cc1[C@@H](NC(C)=O)CC2 [Compound 6b] | 3.74 ± 0.06 | 3.15 ± 0.04 | 3.97 ± 0.12 | 3.06 ± 0.03 | 5.83 ± 0.31 | –
31 | COc1cc2c(c(OC)c1OC)-c1ccc(OCc3cn(Cc4ccc([N+](=O)[O-])cc4)nn3)c(=O)cc1[C@@H](NC(C)=O)CC2 [Compound 6c] | 2.81 ± 0.18 | 2.05 ± 0.03 | 2.42 ± 0.11 | 2.88 ± 0.06 | 4.08 ± 0.26 | –
32 | COc1cc2c(c(OC)c1OC)-c1ccc(OCc3cn([C@@H]4O[C@H](COC(C)=O)[C@@H](OC(C)=O)[C@H](OC(C)=O)[C@H]4NC(C)=O)nn3)c(=O)cc1[C@@H](NC(C)=O)CC2 [Compound 6d] | 5.83 ± 0.15 | 5.04 ± 0.02 | 5.93 ± 0.12 | 5.21 ± 0.39 | 7.29 ± 0.41 | –
33 | CO[C@@]12[C@H](COC(N)=O)C3=C(C(=O)C(C)=C(N)C3=O)N1C[C@@H]1N[C@@H]12 [MitC, mitomycin C, reference compound] | 650 ± 40 | – | – | – | – | IC50 ([2]; Homo sapiens, SK-BR-3): 670 ± 10 nM
